Data set [1] has as its system human melanoma cell line SK-MEL-5. Description: Growth inhibition of the SK-MEL-5 human melanoma cell line (MTT assay). In kind it is cell-based. To be noted: for GI50: Homo sapiens; for growth inhibitory activity in the cell-based assay: SK-MEL-5 cell-based assay. The method, then:
A cell-based assay looking for growth inhibition of the SK-MEL 5 human melanoma cell line was performed.

Another data set has as its system H1299. The experiment in a line: Growth inhibition of tumor cell lines compared to TAXOL: H1299. In kind it is cell-based. To be noted: Homo sapiens, NCI-H1299. The method, then: (§1) In addition, the ability of compounds 323a/c and 343 to inhibit growth of a number of tumor cell lines was tested and compared to TAXOL's ability to inhibit growth of these tumor cell lines.

For a further data set, the system named is H2009. Description: Growth inhibition of tumor cell lines compared to TAXOL: H2009. It is filed as cell-based. To be noted: Homo sapiens, NCI-H2009. The method, then: as §1
A further data set deals with H358. The experiment in a line: Growth inhibition of tumor cell lines compared to TAXOL: H358. It is filed as cell-based. To be noted: Homo sapiens, NCI-H358. As to the method: as §1
Another data set deals with H2058. Description: Growth inhibition of tumor cell lines compared to TAXOL: H2058. It is filed as cell-based. The method, then:
as §1

Another data set has as its system H175. The experiment in a line: Growth inhibition of tumor cell lines compared to TAXOL: H175. In kind it is cell-based. As to the method: as §1
In a further data set the test system is H1264. The experiment in a line: Growth inhibition of tumor cell lines compared to TAXOL: H1264. In kind it is cell-based. As to the method: as §1
The target of data set [2] is T1, purified reconstituted V-ATPase from bovine brain (Bos taurus, UniProt P23956+P61420+Q29466+Q2TA24).
T1 construct: from tissue; host or cells: bovine brain
The experiment in a line: Inhibition of purified reconstituted V-ATPase (proton pumping). In kind it is biochemical. The text has this: Therefore, the present invention provides a method for inhibiting the proton-pumping activity of V-ATPase by contacting V-ATPase, either in vitro or in vivo with the compounds of the present invention. […] See Boyd, M. R. et al., J Pharmacol. Exp. Ther. 297, 114-120 (2001); see also, PCT publication WO 00/51589 of Boyd et al. V-ATPase is composed of an ATPase domain and a proton translocating membraneous channel. […] See Crider, Xie and Stone, J. Biol. Chem. 269:17379-17381 (1994) for the experimental procedure for binding. […] See Example 7 and Table 5 below. See also Bill. Crider, Xie and Stone, J Biol. Chem. 269:17379-17381 (1994).
Others in the art typically use crude membrane preparations to assay V-ATPase activity.

In the next data set the test system is NCI 60-cell line panel. Description: NCI 60-cell line human tumor screen (sulforhodamine B). In kind it is cell-based. To be noted: 48 hours incubation, 10^−6 to 10^−10 molar. From the text: The NCI 60-cell line human tumor screen is a measure of the effectiveness of a compound for inhibiting or killing various human cancers. It is a set of 60 different cancer cell lines against which chemical compounds can be tested against to determine if the compound has anti-cancer activity. Each compound has an individual “fingerprint” based on effectiveness in killing each of the 60 cancer cell lines.
The anti-cancer activity of the synthesized (+)- and (−)-salicylihalamide-A compounds of the present invention (compounds 78 in FIG. 10 and 301a/301c in FIG. 14.) was indistinguishable. […] Salicylihalamide derivatives, showing increased stability over natural salicylihalamide, were tested in the NCI 60 cell-line screen. This screen is an art recognized model. Prior to assay, synthesized compounds were stored in dimethylsulfoxide at −70° C. Five different test concentrations of each compound were prepared by diluting the stock solution into complete medium. Sample concentrations were 2× the final concentration and range from 10^−6 and 10^−10 molar. An aliquot of each concentration of each compound was added to separate microtiter wells containing the respective cell lines in culture medium. The plates were incubated for 48 hours at 37° C. with 5% CO2 and 100% humidity. Adherent cells were fixed by addition of cold 50% trichloracetic acid and incubation at 4° C. for 60 minutes. Suspended cells were fixed to the bottom of the well by addition of 80% trichloracetic acid. The supernatant was removed from each well and then each well was washed with deionized water and allowed to dry. Sulforhodamine B solution was added to each well and allowed to incubate for 10 minutes at room temperature. Unbound sulforhodamine B was removed by washing with 1% acetic acid. The wells were allowed to dry. Bound sulforhodamine B was solubilized using 10 mM Tris base and the optical density at 515 nanometers was determined.

The test system of the next data set is SK-MEL-28 cells. Description: Anti-cancer activity against SK-MEL-28 cells. It is filed as cell-based, human. To be noted: at 20 μM. From the text: The inventor has accomplished the first synthesis of both […] and (−)-salicylihalamide A. The synthesis utilizes a highly efficient, trans-selective ring-closing olefin metathesis for the assembly of the benzolactone skeleton and can be readily adapted to obtain a variety of analogs. […] This cell line is one of the cell lines in the NCI 60 cell line screen.
The absolute configuration of natural salicylihalamide A (1a) was originally misassigned in Boyd et al., 1997. The correct configuration is represented by structure 89. The ultimate proof for this assignment came from a crystallographic analysis of a p-bromobenzoate derivative of salicylihalamide 90, prepared from 73 in a manner similar to the synthesis of 74. […] (−)-salicylihalamide A does have chemotherapeutic activity. […] This cell line is one of the cell lines in the NCI 60 cell line screen.

Where [3] appears, read: 48 h, SK-MEL-5, growth determined 2 days after addition by MTT assay, triplicate assays at 4 concentrations, read-out: GI50.
[4] abbreviates: purified reconstituted V-ATPase from bovine brain, inhibition of proton pumping, read-out: IC50.

Where two headings read alike, the source gives them in different places.

For orientation: GI50 means the concentration giving 50% growth inhibition. A word on the IC50: it is the concentration that inhibits the measured activity by half. As for `CC/C=C\C=C/C(=O)N/C=C/C[C@H]1C[C@@H](O)[C@@H](C)C/C=C/Cc2cccc(O)c2C(=O)O1` [301a/301c], the GI50 in data set [1] (SK-MEL-5, 48 h) is 30 nM; in the data set with H1299 it was 3.2 nM; in the data set on H2009 it was 2 nM; with H358, 1.6 nM; in the data set on H2058 it was 3.2 nM; in the data set on H175, 0.2 nM. Moreover, it took 31.6 nM to inhibit growth in the data set with H1264 by half (GI50). The compound also yielded an IC50 in data set [2] of 0.34 nM. For the same compound, in the data set with NCI 60-cell line panel (listed as 1:1 mixture of salicylihalamide A (1) and C22-E isomer 211), the “activity / differential cytotoxicity profile in the NCI 60-cell line screen” value is “indistinguishable, within the limits of experimental error, from natural salicylihalamide A”.
Turning to `CCC=CC=CC(=O)NC=CCC1CC2CC(O)CC(Cc3cccc(O)c3C(=O)O1)O2` (stereo not shown) [Apicularen A], in data set [1] (setting [3]), the GI50 turned out to be 6 nM. In data set [2], this compound yielded an IC50 below 1 nM.
`CO/C1=C\C(C)=C\[C@@H](C)[C@@H](O)[C@@H](C)C/C(C)=C/C=C/[C@H](OC)[C@@H]([C@@H](C)[C@@H](O)[C@H](C)[C@@]2(O)C[C@@H](O)[C@H](C)[C@@H](C(C)C)O2)OC1=O` [Bafilomycin A, reference compound]: the IC50 in data set [2] (setting [4]) was 3.1 nM.
Take `C=CCOC(=O)/C=C/CC1C[C@@H](O)[C@@H](C)C/C=C/Cc2cccc(O)c2C(=O)O1` (stereo partly shown) [Compound 335b]: in [1] (setting [3]), the GI50 is above 20000 nM. Further, the “growth inhibitory activity in the cell-based assay” value (from here on “growth inhibitory activity”) in data set [1] is “completely inactive”. Besides, the IC50 in data set [2] (setting [4]) was determined as 230 nM.
Regarding `CC/C=C\C=C/C(=O)N(/C=C/C[C@H]1C[C@@H](O)[C@@H](C)C/C=C/Cc2cccc(O)c2C(=O)O1)C(=O)N/C=C/C[C@H]1C[C@@H](O)[C@@H](C)C/C=C/Cc2cccc(O)c2C(=O)O1` [Compound 343], the GI50 in data set [1] (SK-MEL-5, 48 h) was 40 nM; in the data set with H1299, 5 nM; with H2009, 1.6 nM; with H358 it was 10 nM; with H2058, 6.3 nM; with H175 it was 0.2 nM. Moreover, in the data set on H1264, growth was halved (GI50) at 31.6 nM. The same compound registered an IC50 in data set [2] of 0.37 nM.
For the compound `CCCCCCC(=O)N(/C=C/C[C@H]1C[C@@H](O)[C@@H](C)C/C=C/Cc2cccc(O)c2C(=O)O1)C(=O)N/C=C/C[C@H]1C[C@@H](O)[C@@H](C)C/C=C/Cc2cccc(O)c2C(=O)O1` [Compound 345], the GI50 in data set [1] (setting [3]) stood at 600 nM. This compound also registered an IC50 in data set [2] of 3 nM.
On the same counts, the results for `CCCCCCC(=O)N/C=C/C[C@H]1C[C@@H](O)[C@@H](C)C/C=C/Cc2cccc(O)c2C(=O)O1` [Compound 346] are 380 nM and 0.8 nM.
For `C[C@H]1C/C=C/Cc2cccc(O)c2C(=O)OC(C/C=C/NC(=O)C#Cc2ccccc2)C[C@H]1O` (stereo partly shown) [Compound 349], in that order: 300 nM and 0.75 nM.
On the same counts, the results for `CCCCC#CC(=O)N/C=C/CC1C[C@@H](O)[C@@H](C)C/C=C/Cc2cccc(O)c2C(=O)O1` (stereo partly shown) [Compound 350] are 300 nM and 1 nM.
On to `CCCCCOC(=O)N/C=C/C[C@H]1C[C@@H](O)[C@@H](C)C/C=C/Cc2cccc(O)c2C(=O)O1` [Compound 351], for which the GI50 in data set [1] (setting [3]) was found to be 500 nM. Further, 0.2 nM corresponded to half-maximal inhibition in [2] (IC50).
With `CCCCCSC(=O)N/C=C/CC1C[C@@H](O)[C@@H](C)C/C=C/Cc2cccc(O)c2C(=O)O1` (stereo partly shown) [Compound 352], the GI50 in data set [1] (setting [3]) is 450 nM. Further, inhibition in data set [2] was half-maximal at 1.8 nM (IC50).
`CC(C)=CCC/C(C)=C/CC/C(C)=C/COC(=O)N/C=C/CC1C[C@@H](O)[C@@H](C)C/C=C/Cc2cccc(O)c2C(=O)O1` (stereo partly shown) [Compound 353]: the GI50 in data set [1] (setting [3]) was above 20000 nM. Further, in data set [2], the IC50 is above 1800 nM.
Turning to `CCCCCCCC(=O)OCC[C@H]1C[C@@H](O)[C@@H](C)C/C=C/Cc2cccc(O)c2C(=O)O1` [Compound 355], in [1] (setting [3]), the GI50 is above 20000 nM. The “growth inhibitory activity” value in data set [1] was “completely inactive”. In data set [2] (setting [4]), the IC50 was above 1000 nM.
Take `CCCCCOC(=O)N/C=C/C[C@H]1C[C@@H](O)[C@@H](C)CCCCc2cccc(O)c2C(=O)O1` [Compound 361]: the 50% growth inhibitory concentration (GI50) in [1] (setting [3]) was 8000 nM. Moreover, the “growth inhibitory activity” value in data set [1] is recorded as “retained a significant, although attenuated, level of growth inhibitory activity”. The same compound yielded an IC50 in [2] of 9.3 nM.
For `CCCCCOC(=O)NCCC[C@H]1C[C@@H](O)[C@@H](C)CCCCc2cccc(O)c2C(=O)O1` [Compound 362], in that order: above 20000 nM, “completely abolished antiproliferative potential” and 75.7 nM.
Consider `CCCCCOC(=O)N/C=C/C[C@H]1C[C@@H](O)[C@@H](C)C/C=C/Cc2cccc(OC(=O)c3ccccc3)c2C(=O)O1` [Compound 366], for which the GI50 in data set [1] (setting [3]) is 1000 nM. In addition, the IC50 in [2] (setting [4]) came to 300 nM.
With `CC(=O)O[C@H]1C(=O)[C@@]2(C)[C@H]([C@H](OC(=O)c3ccccc3)[C@]3(O)C[C@H](OC(=O)[C@H](O)[C@@H](NC(=O)c4ccccc4)c4ccccc4)C(C)=C1C3(C)C)[C@]1(OC(C)=O)CO[C@@H]1C[C@@H]2O` [TAXOL, reference compound], the GI50 in the data set on H1299 (cell line H1299, read-out: GI50) worked out at 5 nM; in the data set with H2009 (cell line H2009, read-out: GI50) it was 5 nM; with H358 (cell line H358, read-out: GI50), 5 nM; in the data set on H2058 (cell line H2058, read-out: GI50) it was 5 nM; in the data set on H175 (cell line H175, read-out: GI50), 5 nM; in the data set on H1264 (cell line H1264, read-out: GI50) it was 5 nM.
For (+)-salicylihalamide A [Compound 87], the IC50 in [2] (setting [4]) is 270 nM. Also, the “anti-cancer activity against SK-MEL-28 cells” value in the data set with SK-MEL-28 cells was “inactive”. Moreover, the “activity / differential cytotoxicity profile in the NCI 60-cell line screen” value is “completerly inactive” in the data set with NCI 60-cell line panel and “devoid of growth inhibitory activity” in the data set with NCI 60-cell line panel (listed as ent-301a).

The record behind these values is patent US6936723B2, “Synthetic salicylihalamides, apicularens and derivatives thereof” (Board of Regents, The University of Texas System, priority 2000, dated 2005).
